According to paper PMC6009913, “N-aryl 2-aryloxyacetamides as a new class of fatty acid amide hydrolase (FAAH) inhibitors” (Journal of Enzyme Inhibition and Medicinal Chemistry, 2017):
≈ marks a conversion by molar mass, not a printed value. Read-outs that look alike come from different tables or passages of the source.

Legend:
FAAH [1] = biological target: T1, FAAH (Rattus norvegicus, UniProt P97612); experiment: FAAH inhibition, hydrolysis of 0.5 µM [3H]AEA in rat brain homogenates; format: biochemical; details: for Maximum inhibition: maximal attainable inhibition according to preferred curve fit, mean ± standard error; for effect of pre-incubation on inhibition curve (time dependence): 60 vs. 0 min of pre-incubation
T1 construct: using rat brain homogenates as enzyme source; from tissue; host or cells: rat brain homogenate
T1 sequence (P97612 1-579): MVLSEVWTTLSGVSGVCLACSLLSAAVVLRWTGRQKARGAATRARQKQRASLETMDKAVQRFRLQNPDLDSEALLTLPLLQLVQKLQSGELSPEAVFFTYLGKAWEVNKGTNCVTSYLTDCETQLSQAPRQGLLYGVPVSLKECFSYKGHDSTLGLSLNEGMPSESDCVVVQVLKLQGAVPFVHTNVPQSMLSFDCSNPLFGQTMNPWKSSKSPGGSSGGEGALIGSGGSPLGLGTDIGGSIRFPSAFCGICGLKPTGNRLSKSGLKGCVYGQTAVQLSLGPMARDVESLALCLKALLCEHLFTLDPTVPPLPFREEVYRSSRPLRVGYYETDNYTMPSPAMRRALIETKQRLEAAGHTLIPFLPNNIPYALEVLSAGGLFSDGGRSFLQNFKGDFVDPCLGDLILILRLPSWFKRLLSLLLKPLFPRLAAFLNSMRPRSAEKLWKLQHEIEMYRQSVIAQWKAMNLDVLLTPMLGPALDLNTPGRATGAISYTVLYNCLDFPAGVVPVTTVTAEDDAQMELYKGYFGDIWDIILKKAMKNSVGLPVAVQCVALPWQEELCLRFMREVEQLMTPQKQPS

[2] = thermodynamic aqueous solubility in phosphate-buffered saline; format: physicochemical; details: aqueous buffer, thermodynamic from solid; phosphate-buffered saline 10 mM, pH 7.48, 37 °C
FAAH [3] = tested on: FAAH; parameters: method as in PMID 21502526; details: reported; cited from earlier work
FAAH [4] = tested on: FAAH; parameters: method as in PMID 12461523; details: previously reported data; cited from earlier work
[5] = 60-min pre-incubation with enzyme

SMILES	Maximum inhibition (FAAH [1]; no pre-incubation) [%]	other results
O=C(COc1ccc(-c2ccccc2)cc1)Nc1ccccc1-c1nc2ncccc2o1 [4a, 2-([1,1′-Biphenyl]-4-yloxy)-N-(2-(oxazolo[4,5-b]pyridin-2-yl)phenyl)acetamide]	3 ± 5	–
O=C(COc1ccc(-c2ccccc2)cc1)Nc1cccc(-c2nc3ncccc3[nH]2)c1 [4o, N-(3-(1H-imidazo[4,5-b]pyridin-2-yl)phenyl)-2-([1,1'-biphenyl]-4-yloxy)acetamide]	71 ± 9	–
O=C(COc1ccc(C2CCCCC2)cc1)Nc1ccccc1-c1nc2ncccc2[nH]1 [4m, N-(2-(1H-imidazo[4,5-b]pyridin-2-yl)phenyl)-2-(4-cyclohexylphenoxy)acetamide]	82 ± 3	effect of pre-incubation on inhibition curve (time dependence) (FAAH [1]): reduced maximal inhibition; solubility thermodynamic [2]: 3 to 20 µM (≈ 1.28 to 8.53 µg/mL)
O=C(COc1ccc(C2CCCCC2)cc1)Nc1cccc(-c2nc3ncccc3o2)c1 [4g, 2-(4-Cyclohexylphenoxy)-N-(3-(oxazolo[4,5-b]pyridin-2-yl)phenyl)acetamide]	100	–
CCC/C=C/COCC(=O)Nc1ccc(-c2nc3ncccc3[nH]2)cc1 [4t, (E)-N-(4-(1H-imidazo[4,5-b]pyridin-2-yl)phenyl)-2-(hex-2-en-1-yloxy)acetamide]	100	IC50 (FAAH [1]; [5]): 43000 nM; effect of pre-incubation on inhibition curve (time dependence) (FAAH [1]): A small degree of time-dependent inhibition; IC50 (FAAH [1]; rat brain homogenates, 0.5 µM [3H]AEA, no pre-incubation, pooled from three independent experiments, 5–7 concentrations): 64000 nM
CCC/C=C/COCC(=O)Nc1ccccc1-c1nc2ncccc2o1 [4c, (E)-2-(hex-2-en-1-yloxy)-N-(2-(oxazolo[4,5-b]pyridin-2-yl)phenyl)acetamide]	7 ± 3	–
O=C(COc1ccc(C2CCCCC2)cc1)Nc1cccc(-c2nc3ncccc3[nH]2)c1 [4p, N-(3-(1H-imidazo[4,5-b]pyridin-2-yl)phenyl)-2-(4-cyclohexylphenoxy)acetamide]	100	–
O=C(COc1ccc(C2CCCCC2)cc1)Nc1ccccc1-c1nc2ncccc2o1 [4b, 2-(4-Cyclohexylphenoxy)-N-(2-(oxazolo[4,5-b]pyridin-2-yl)phenyl)acetamide]	−1 ± 3	–
O=C(COc1ccccc1)Nc1cccc(-c2nc3ncccc3o2)c1 [4d, N-(3-(oxazolo[4,5-b]pyridin-2-yl)phenyl)-2-phenoxyacetamide]	100	–
CCn1c(=O)n([C@H]2CCCN(c3nccc(-c4cc5ccccc5o4)n3)C2)c2ccccc21 [crystal ligand, 1-{(3S)-1-[4–(1-benzofuran-2-yl)pyrimidin-2-yl]piperidin-3-yl}-3-ethyl-1,3-dihydro-2H-benzimidazol-2-one]	–	IC50 (FAAH [3]): 100 nM
NC(=O)c1cccc(-c2cccc(OC(=O)NC3CCCCC3)c2)c1 [URB597]	–	IC50 (FAAH [4]): 4.6 ± 1.6 nM
CCC/C=C/COCC(=O)Nc1cccc(-c2nc3ncccc3[nH]2)c1 [4q, (E)-N-(3-(1H-imidazo[4,5-b]pyridin-2-yl)phenyl)-2-(hex-2-en-1-yloxy)acetamide]	100	–
O=C(COc1ccc(-c2ccccc2)cc1)Nc1ccc(-c2nc3ncccc3[nH]2)cc1 [4r, N-(4-(1H-imidazo[4,5-b]pyridin-2-yl)phenyl)-2-([1,1'-biphenyl]-4-yloxy)acetamide]	80 ± 2	effect of pre-incubation on inhibition curve (time dependence) (FAAH [1]): reduced maximal inhibition; solubility thermodynamic [2]: 20 µM (≈ 8.41 µg/mL)
CCC/C=C/COCC(=O)Nc1ccccc1-c1nc2ncccc2[nH]1 [4n, (E)-N-(2–(1H-imidazo[4,5-b]pyridin-2-yl)phenyl)-2-(hex-2-en-1-yloxy)acetamide]	100	–
O=C(COc1ccc(-c2ccccc2)cc1)Nc1ccc(-c2nc3ncccc3o2)cc1 [4i, 2-([1,1′-Biphenyl]-4-yloxy)-N-(4-(oxazolo[4,5-b]pyridin-2-yl)phenyl)acetamide]	75 ± 4	IC50 (FAAH [1]; [5]): 280 nM; maximum observed inhibition (FAAH [1]; [5]): 39 ± 2%; solubility thermodynamic [2]: 18 µM (≈ 7.59 µg/mL)
O=C(COc1ccc(-c2ccccc2)cc1)Nc1cccc(-c2nc3ncccc3o2)c1 [4f, 2-([1,1′-Biphenyl]-4-yloxy)-N-(3-(oxazolo[4,5-b]pyridin-2-yl)phenyl)acetamide]	–	solubility thermodynamic [2]: 3 to 20 µM (≈ 1.26 to 8.43 µg/mL)
CCC/C=C/COCC(=O)Nc1ccc(-c2nc3ncccc3o2)cc1 [4k, (E)-2-(hex-2-en-1-yloxy)-N-(4-(oxazolo[4,5-b]pyridin-2-yl)phenyl)acetamide]	46 ± 9	–
O=C(COc1ccc(C2CCCCC2)cc1)Nc1ccc(-c2nc3ncccc3[nH]2)cc1 [4s, N-(4-(1H-imidazo[4,5-b]pyridin-2-yl)phenyl)-2-(4-cyclohexylphenoxy)acetamide]	62 ± 4	effect of pre-incubation on inhibition curve (time dependence) (FAAH [1]): essentially identical inhibition curves; solubility thermodynamic [2]: 3 µM (≈ 1.28 µg/mL)
O=C(COc1ccc(-c2ccccc2)cc1)Nc1ccccc1-c1nc2ncccc2[nH]1 [4l, N-(2-(1H-imidazo[4,5-b]pyridin-2-yl)phenyl)-2-([1,1'-biphenyl]-4-yloxy)acetamide]	70 ± 2	effect of pre-incubation on inhibition curve (time dependence) (FAAH [1]): reduced maximal inhibition
CC(C)c1ccc(OCC(=O)Nc2cccc(-c3nc4ncccc4o3)c2)cc1 [4e, 2-(4-Isopropylphenoxy)-N-(3-(oxazolo[4,5-b]pyridin-2-yl)phenyl)acetamide]	100	–
O=C(COc1ccc(C2CCCCC2)cc1)Nc1ccc(-c2nc3ncccc3o2)cc1 [4j, 2-(4-Cyclohexylphenoxy)-N-(4-(oxazolo[4,5-b]pyridin-2-yl)phenyl)acetamide]	19 ± 10	–
CCC/C=C/COCC(=O)Nc1cccc(-c2nc3ncccc3o2)c1 [4h, (E)-2-(hex-2-en-1-yloxy)-N-(3-(oxazolo[4,5-b]pyridin-2-yl)phenyl)acetamide]	100	–
